As usually defined, the inhibition is the relative decrease from the control value, in per cent.

The values below come from US10077261B2, “Imidazolin-5-one derivative useful as FASN inhibitors for the treatment of cancer” (Janssen Pharmaceutica NV, priority 2012, dated 2018).

This test has as its target T1, hFASN enzyme (full length) (Homo sapiens, UniProt P49327).
T1 construct: 10 μL hFASN enzyme (full length, 300 ng, purified in house); made in house
Put plainly: Fatty Acid Synthase (FASN) inhibition scintillation proximity assay. Format: biochemical. The conditions noted are these: for inhibition at 10 µM: read-out: Human FASN % inhibition @ 10 μM, 10 μM test compound; for IC50: read-out: Human FASN pIC50 (converted). How it is done:
In this assay, inhibition of FASN activity is measured using ^3H-acetyl-CoA and malonyl-CoA as substrates. ^3H-Acetyl CoA is converted to ^3H-palmitate through a series of reactions by the FASN protein, which contains 7 functional domains and carries out 7 enzymatic reactions to ultimately produce ^3H-palmitate. The assay principle is based upon the fact that ^3H-acetyl-CoA is hydrophilic and the end product, ^3H-palmitate is hydrophobic.
10 μL assay buffer (100 mM KH2PO4 pH 7.5, 1 mM DTT) (20 μL in blanks) was added to a 384-well white optiplate plate (Perkin Elmer). 0.9 μL test compound (at concentrations of 30 μM, 10 μM, 3 μM, 1 μM, 0.30 μM, 0.10 μM, 0.03 μM and 0.01 μM)/DMSO and 10 μL hFASN enzyme (full length, 300 ng, purified in house) or 10 μL assay buffer was added to the wells. […] The reaction was stopped by adding 20 μL Streptavidin coupled imaging beads (25 mg/ml). After incubation for 30 minutes at room temperature in the dark, the 384 well plate was centrifuged at 1500 rpm for 3 minutes and was measured after at least 24 hrs by the LEADseeker™, measuring emission using a 610±20 nm pass filter.
where mLC and mHC were the means of the low control wells and high control wells on the plate, after manual exclusion of outliers. A plot of Controlmin versus test compound concentration was fitted to a 4-parameter logistic curve using a non-linear least squares regression method.

T1 sequence (P49327 whole entry): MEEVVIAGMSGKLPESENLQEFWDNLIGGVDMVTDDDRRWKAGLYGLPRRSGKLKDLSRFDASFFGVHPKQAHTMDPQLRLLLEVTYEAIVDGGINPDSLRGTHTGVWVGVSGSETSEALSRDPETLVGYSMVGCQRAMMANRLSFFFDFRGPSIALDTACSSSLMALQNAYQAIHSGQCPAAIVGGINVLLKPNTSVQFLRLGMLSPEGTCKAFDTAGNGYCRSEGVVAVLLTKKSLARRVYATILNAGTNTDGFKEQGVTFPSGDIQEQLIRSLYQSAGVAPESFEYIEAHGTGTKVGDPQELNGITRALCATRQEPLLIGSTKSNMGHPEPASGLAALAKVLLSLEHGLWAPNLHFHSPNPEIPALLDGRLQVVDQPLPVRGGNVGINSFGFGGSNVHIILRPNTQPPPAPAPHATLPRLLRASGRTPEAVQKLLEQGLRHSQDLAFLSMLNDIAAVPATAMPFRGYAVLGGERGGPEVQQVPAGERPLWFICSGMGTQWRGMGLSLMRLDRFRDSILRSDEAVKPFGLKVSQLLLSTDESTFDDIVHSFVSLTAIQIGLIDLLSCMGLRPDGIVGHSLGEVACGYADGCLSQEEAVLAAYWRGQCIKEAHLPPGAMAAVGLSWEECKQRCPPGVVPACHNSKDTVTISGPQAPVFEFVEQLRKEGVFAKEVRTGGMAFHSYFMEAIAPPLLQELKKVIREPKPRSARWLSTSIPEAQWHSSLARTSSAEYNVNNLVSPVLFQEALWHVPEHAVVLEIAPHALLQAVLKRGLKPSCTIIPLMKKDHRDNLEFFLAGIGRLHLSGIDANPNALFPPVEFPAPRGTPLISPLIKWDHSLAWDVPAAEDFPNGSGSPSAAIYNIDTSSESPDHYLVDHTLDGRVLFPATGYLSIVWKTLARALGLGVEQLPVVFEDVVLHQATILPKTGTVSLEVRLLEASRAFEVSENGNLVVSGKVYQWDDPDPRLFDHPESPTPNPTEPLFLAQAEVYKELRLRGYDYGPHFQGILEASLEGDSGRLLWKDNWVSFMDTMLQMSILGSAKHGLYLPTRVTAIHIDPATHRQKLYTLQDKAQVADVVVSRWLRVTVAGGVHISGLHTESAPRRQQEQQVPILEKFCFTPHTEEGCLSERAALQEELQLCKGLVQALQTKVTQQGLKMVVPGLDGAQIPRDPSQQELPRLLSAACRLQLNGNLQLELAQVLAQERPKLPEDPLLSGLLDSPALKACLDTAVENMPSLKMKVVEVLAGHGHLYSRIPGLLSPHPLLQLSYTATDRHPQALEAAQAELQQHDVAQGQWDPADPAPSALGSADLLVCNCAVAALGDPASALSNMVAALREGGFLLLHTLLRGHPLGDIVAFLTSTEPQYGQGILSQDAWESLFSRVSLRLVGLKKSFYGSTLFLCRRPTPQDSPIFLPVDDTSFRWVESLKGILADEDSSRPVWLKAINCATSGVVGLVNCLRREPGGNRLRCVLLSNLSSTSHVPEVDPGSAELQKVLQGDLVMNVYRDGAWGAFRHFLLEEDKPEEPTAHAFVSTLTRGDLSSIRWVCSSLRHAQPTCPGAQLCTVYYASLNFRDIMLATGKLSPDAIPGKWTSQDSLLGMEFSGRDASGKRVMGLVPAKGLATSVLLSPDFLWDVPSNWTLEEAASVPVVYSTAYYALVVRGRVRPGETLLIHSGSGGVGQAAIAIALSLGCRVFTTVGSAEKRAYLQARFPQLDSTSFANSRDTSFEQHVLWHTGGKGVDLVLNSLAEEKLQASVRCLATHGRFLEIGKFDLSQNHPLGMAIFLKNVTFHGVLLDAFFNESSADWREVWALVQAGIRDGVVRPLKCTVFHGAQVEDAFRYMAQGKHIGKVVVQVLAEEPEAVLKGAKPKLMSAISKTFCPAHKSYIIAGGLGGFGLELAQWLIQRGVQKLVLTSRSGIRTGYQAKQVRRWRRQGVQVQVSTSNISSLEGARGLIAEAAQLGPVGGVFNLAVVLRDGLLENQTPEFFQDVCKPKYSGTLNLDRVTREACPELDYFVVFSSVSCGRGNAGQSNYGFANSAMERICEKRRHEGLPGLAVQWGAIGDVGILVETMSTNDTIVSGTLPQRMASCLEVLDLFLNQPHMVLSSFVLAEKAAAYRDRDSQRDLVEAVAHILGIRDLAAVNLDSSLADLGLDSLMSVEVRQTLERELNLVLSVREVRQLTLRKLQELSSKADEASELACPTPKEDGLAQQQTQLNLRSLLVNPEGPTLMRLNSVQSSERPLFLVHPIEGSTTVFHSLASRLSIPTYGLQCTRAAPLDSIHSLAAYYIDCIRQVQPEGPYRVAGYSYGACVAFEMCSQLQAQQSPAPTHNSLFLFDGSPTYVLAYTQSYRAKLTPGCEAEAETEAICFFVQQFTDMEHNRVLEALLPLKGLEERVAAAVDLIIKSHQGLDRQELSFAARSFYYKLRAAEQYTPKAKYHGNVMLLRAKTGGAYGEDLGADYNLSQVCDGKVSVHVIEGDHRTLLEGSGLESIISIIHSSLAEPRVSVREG

As to `O=C(C1CC1)N1CC[C@@H](CN2C(=O)C3(CCCC3)N=C2c2ccc(-c3ccncc3)cc2)C1` [compound 3, 3-{[(3R)-1-(Cyclopropylcarbonyl)pyrrolidin-3-yl]methyl}-2-(4-pyridin-4-ylphenyl)-1,3-diazaspiro[4.4]non-1-en-4-one], the inhibition at 10 µM was determined as 44.3% and the IC50 was over 10 µM.

As to `O=C(C1CC1)N1CC[C@@H](CN2C(=O)C3(CCCC3)N=C2c2ccc(-c3cccnc3)cc2)C1` [compound 5, 3-{[(3R)-1-(Cyclopropylcarbonyl)pyrrolidin-3-yl]methyl}-2-(4-pyridin-3-ylphenyl)-1,3-diazaspiro[4.4]non-1-en-4-one], the inhibition at 10 µM was determined as 74.6% and the IC50 was 2.14 µM.

Take `O=C(C1CC1)N1CCC(CN2C(=O)C3(CC3)N=C2c2ccc(-c3cccnc3)cc2)CC1` [compound 6, 6-{[1-(Cyclopropylcarbonyl)piperidin-4-yl]methyl}-5-(4-pyridin-3-ylphenyl)-4,6-diazaspiro[2.4]hept-4-en-7-one]: the inhibition at 10 µM was 61.6% and the IC50 is 7.24 µM.

On to `N#Cc1ccc(-c2ccc(C3=NC4(CC4)C(=O)N3CC3CCN(C(=O)C4CC4)CC3)cc2)cc1` [compound 7, 4′-(6-{[1-(Cyclopropylcarbonyl)piperidin-4-yl]methyl}-7-oxo-4,6-diazaspiro[2.4]hept-4-en-5-yl)biphenyl-4-carbonitrile], for which the inhibition at 10 µM came to 33.7%.

As for `Cn1nccc1-c1ccc(C2=NC3(CC3)C(=O)N2CC2CCN(C(=O)C3CC3)CC2)cc1` [compound 8, 6-{[1-(Cyclopropylcarbonyl)piperidin-4-yl]methyl}-5-[4-(1-methyl-1H-pyrazol-5-yl)phenyl]-4,6-diazaspiro[2.4]hept-4-en-7-one], the inhibition at 10 µM turned out to be 5.1% and the IC50 was over 10 µM.

For `Cn1cc(-c2ccc(C3=NC4(CC4)C(=O)N3CC3CCN(C(=O)C4CC4)CC3)cc2)cn1` [compound 9, 6-{[1-(Cyclopropylcarbonyl)piperidin-4-yl]methyl}-5-[4-(1-methyl-1H-pyrazol-4-yl)phenyl]-4,6-diazaspiro[2.4]hept-4-en-7-one], the inhibition at 10 µM was determined as 11.4% and the IC50 was over 10 µM.

On to `Cn1cc(-c2ccc(C3=NC4(CCCC4)C(=O)N3C[C@@H]3CCN(C(=O)C4CC4)C3)cc2)cn1` [compound 13, 3-{[(3R)-1-(Cyclopropylcarbonyl)pyrrolidin-3-yl]methyl}-2-[4-(1-methyl-1H-pyrazol-4-yl)phenyl]-1,3-diazaspiro[4.4]non-1-en-4-one], for which the inhibition at 10 µM was 29.7% and the IC50 is over 10 µM.

As to `COC(=O)N1CCC2(CC1)N=C(c1ccc(-c3ccc4occc4c3)cc1)N(CC1CN(C(=O)C3CC3)C1)C2=O` [compound 16, Methyl 2-[4-(1-benzofuran-5-yl)phenyl]-3-{[1-(cyclopropylcarbonyl)azetidin-3-yl]methyl}-4-oxo-1,3,8-triazaspiro[4.5]dec-1-ene-8-carboxylate], the inhibition at 10 µM stood at 72.5% and the IC50 was 1.38 µM.

For the compound `O=C(C1CC1)N1CC[C@@H](CN2C(=O)C3(CCCC3)N=C2c2ccc(-c3ccccn3)cc2)C1` [compound 18, 3-{[(3R)-1-(Cyclopropylcarbonyl)pyrrolidin-3-yl]methyl}-2-(4-pyridin-2-ylphenyl)-1,3-diazaspiro[4.4]non-1-en-4-one], the inhibition at 10 µM is 42.7% and the IC50 is over 10 µM.

Regarding `O=C(C1CC1)N1CC[C@@H](CN2C(=O)C3(CCCC3)N=C2c2ccc(-c3ccnc4ccccc34)cc2)C1` [compound 22, 3-{[(3R)-1-(Cyclopropylcarbonyl)pyrrolidin-0 3-yl]methyl}-2-(4-quyinolin-4-ylphenyl)-1,3-diazaspiro[4.4]non-1-en-4-one], the inhibition at 10 µM was 85% and the IC50 was 1.07 µM.

As for `Cn1ncc2ccc(-c3ccc(C4=NC5(CC5)C(=O)N4CC4CCN(C(=O)C5CC5)CC4)cc3)cc21` [compound 24, 6-{[1-(Cyclopropylcarbonyl)piperidin-4-yl]methyl}-5-[4-(1-methyl-1H-indazol-6-yl)phenyl]-4,6-diazaspiro[2.4]hept-4-en-7-one], the inhibition at 10 µM worked out at 76.4% and the IC50 is 1.86 µM.

As to `O=C(C1CC1)N1CCC(CN2C(=O)C3(CC3)N=C2c2ccc(-c3ccc4ccncc4c3)cc2)CC1` [compound 25, 6-{[1-(Cyclopropylcarbonyl)piperidin-4-yl]methyl}-5-(4-isoquinolin-7-ylphenyl)-4,6-diazaspiro[2.4]hept-4-en-7-one], the inhibition at 10 µM is 64.4% and the IC50 was about 4.9 µM.

Take `O=C(C1CC1)N1CCC(CN2C(=O)C3(CC3)N=C2c2ccc(-c3ccncc3)cc2)CC1` [compound 32, 6-{[1-(Cyclopropylcarbonyl)piperidin-4-yl]methyl}-5-(4-pyridin-4-ylphenyl)-4,6-diazaspiro[2.4]hept-4-en-7-one]: the inhibition at 10 µM amounted to 6.8% and the IC50 is over 10 µM.

As for `O=C(C1CC1)N1CCC(CN2C(=O)C3(CC3)N=C2c2ccc(-c3ccc4ocnc4c3)cc2)CC1` [compound 37, 5-[4-(1,3-Benzoxazol-5-yl)phenyl]-6-{[1-(cyclopropylcarbonyl)piperidin-4-yl]methyl}-4,6-diazaspiro[2.4]hept-4-en-7-one], the inhibition at 10 µM stood at 28.6% and the IC50 was over 10 µM.

Take `Cn1cc(-c2ccc(C3=NC4(CC4)C(=O)N3CC3CN(C(=O)C4CC4)C3)cc2)cn1` [compound 42, 6-{[1-(Cyclopropylcarbonyl)azetidin-3-yl]methyl}-5-[4-(1-methyl-1H-pyrazol-4-yl)phenyl]-4,6-diazaspiro[2.4]hept-4-en-7-one]: the inhibition at 10 µM was 23.5% and the IC50 is over 10 µM.

In the case of `Cn1nccc1-c1ccc(C2=NC3(CC3)C(=O)N2CC2CN(C(=O)C3CC3)C2)cc1` [compound 43, 6-{[1-(Cyclopropylcarbonyl)azetidin-3-yl]methyl}-5-[4-(1-methyl-1H-pyrazol-5-yl)phenyl]-4,6-diazaspiro[2.4]hept-4-en-7-one], the inhibition at 10 µM is 45.4% and the IC50 is about 10 µM.

Take `CN1CCN(c2ccc(-c3ccc(C4=NC5(CCCC5)C(=O)N4C[C@@H]4CCN(C(=O)C5CC5)C4)cc3)cn2)CC1` [compound 44, 3-{[(3R)-1-(Cyclopropylcarbonyl)pyrrolidin-3-yl]methyl}-2-{4-[6-(4-methylpiperazin-1-yl)pyridin-3-yl]phenyl}-1,3-diazaspiro[4.4]non-1-en-4-one]: the inhibition at 10 µM was -0.97% and the IC50 was over 10 µM.

Consider `O=C(C1CC1)N1CC(CN2C(=O)C3(CC3)N=C2c2ccc(-c3ccc(O)cc3)cc2)C1` [compound 50, 6-{[1-(Cyclopropylcarbonyl)azetidin-3-yl]methyl}-5-(4′-hydroxybiphenyl-4-yl)-4,6-diazaspiro[2.4]hept-4-en-7-one], for which the inhibition at 10 µM amounted to 64.8% and the IC50 is 3.47 µM.

In the case of `Nc1cc(-c2ccc(C3=NC4(CC4)C(=O)N3CC3CN(C(=O)C4CC4)C3)cc2)ccc1O` [compound 53, 5-(3′-Amino-4′-hydroxybiphenyl-4-yl)-6-{[1-(cyclopropylcarbonyl)azetidin-3-yl]methyl}-4,6-diazaspiro[2.4]hept-4-en-7-one], the inhibition at 10 µM was 78.6% and the IC50 is 1.95 µM.
